Assay results: paper PMC2376372, “3-Bromophenyl 6-acetoxymethyl-2-oxo-2H-1-benzopyran-3-carboxylate inhibits cancer cell invasion in vitro and tumour growth in vivo” (British Journal of Cancer, 2003)

How the values were obtained:
[1] = system: HT1080 fibrosarcoma cells; experiment: Chemoinvasion assay, type IV collagen-coated Transwell inserts (Boyden chamber); type: cell-based, human; details: Homo sapiens, HT-1080, 48 h, type IV collagen-coated filters, read-out: inhibition of HT1080 cell invasion (chemoinvasion)
Method: Plates (24-well) (Falcon, Becton-Dickinson, USA) and 6.5 mm polycarbonate filters (8 μm pore size) of Transwell cell culture chamber inserts (Costar, Netherlands) were coated with 100 μl of type IV collagen purified from human placenta diluted at 200 μg ml^−1 in phosphate-buffered saline (PBS). Coats were left to air-dry overnight in a laminar flow hood under UV light. Uniformity of the coating was assessed by Coomassie blue staining. Before use, coated plates and inserts were washed twice with water and incubated for at least 1 h in serum-free DMEM at 37°C ([Maquoi et al, 1999]).
HT1080 cells exponentially growing in T-75 flasks (Nunc, Costar, Netherlands) were collected by trypsin–ethylenediaminetetraacetic acid treatment, washed with serum-containing medium and allowed to recover from trypsinisation for at least 30 min at 37°C. Cells were then washed twice in serum-free DMEM and diluted in the same medium supplemented with 0.1% bovine serum albumin (BSA, fraction V, Sigma, USA) to a cell density of 6 × 10^5 cells ml^−1.
The influence of coumarin derivatives (0.1, 1 and 10 μM) on HT1080 cell invasion and migration was assayed using Transwell cell culture inserts (Costar) and compared to the reference compound GI 129471 (1 μM), an MMP inhibitor ([Wheeler et al, 1998]).
For chemoinvasion assays, type IV collagen-coated membranes (see above) were used, whereas uncoated membranes were employed for chemotaxis assays. Lower wells of chambers were filled with DMEM supplemented with 20% FCS and 1% BSA (fraction V, ICN) as chemoattractant, in the presence or absence of coumarin derivative (final concentration 0.1, 1 and 10 μM) or GI 129471 (final concentration 1 μM). Cells (6 × 10^4) suspended in DMEM supplemented with 0.1% BSA (fraction V, ICN) were seeded in the upper wells. Chambers were subsequently incubated for 48 and 4 h for chemoinvasion and chemotaxis assays, respectively, in a humid atmosphere at 37°C (in order to maintain a chemotactic gradient, media from both lower and upper wells were renewed after 24 h). After incubation, filters were removed from the chambers, fixed in 4% paraformaldehyde for 15 min (4°C), permeabilised for 10 min in methanol (−20°C) and stained with Giemsa (4%) for 15 min. The upper surface of the filters was scrapped with a cotton swab and cells having reached the lower surface of the filters were visually counted using a light microscope (Vanox AH3, Olympus, Hamburg, Germany) at 20-fold magnification. Each assay was performed in triplicate. Results were expressed as percentages (±s.d.) of the migration of control cells.

HMW-uPA = target: T1, HMW-uPA (Homo sapiens, UniProt P00749); experiment: Inhibition of purified HMW-uPA; type: biochemical; details: purified enzyme, pH 7.5, 25°C
T1 construct: purchased Choay
Method: (§1) Bovine α-CT and LMW-uPA (MW=33 000 Da) were purchased from Sigma, HMW-uPA (MW=54 000 Da) from Choay, trypsin (TRY) and THR from Boehringer-Indelheim (Germany), and MMP-2 and MMP-9 from Calbiochem. Human leucocyte elastase and PM were from Elastase Products Co. and Biogenic, respectively. Except for THR, HMW-uPA, MMP-2 and MMP-9, enzyme concentrations were determined by active-site titrations using the appropriate titrant ([Bender et al, 1966]; [Chase and Shaw, 1970]; [Powers and Gupton, 1977]). Several enzymes were assayed spectrophotometrically at 405 nm using the following p-nitroanilide substrates: succininyl-Ala2-Pro-Phe-p-nitroanilide (Suc-AAPF-p-NA), benzoyl-Arg-p-nitroanilide (Bz-R-p-NA) and methoxysuccinyl-Ala2-Pro-Val-p-nitroanilide (MeO-Suc-AAPV-p-NA) for α-CT, TRY and HLE, respectively (obtained from Sigma); or S-2238 ([…]), S-2444 (<Glu-Gly-Arg-p-nitroanilide) and S-2251 (H-D-Val-Leu-Lys-p-nitroanilide) for THR, HMW- and LMW-uPA, and PM, respectively (from Biogenic). Matrix metalloprotease-2 previously activated by treatment with APMA were assayed at 412 nm with the thiopeptide Ac-Pro-Leu-Gly-^Sleu-Leu-Gly-Oet in the presence of 5,5′-dithiobis(2-nitrobenzenic) acid (DTNB). […]

MMP-9 = target: T2, MMP-9 (Homo sapiens, UniProt P14780); experiment: Inhibition of purified MMP-9; type: biochemical; details: purified enzyme, pH 7.5, 25°C
T2 construct: purchased Calbiochem
Method: as §1

T2 sequence (P14780 94-707, species assumed): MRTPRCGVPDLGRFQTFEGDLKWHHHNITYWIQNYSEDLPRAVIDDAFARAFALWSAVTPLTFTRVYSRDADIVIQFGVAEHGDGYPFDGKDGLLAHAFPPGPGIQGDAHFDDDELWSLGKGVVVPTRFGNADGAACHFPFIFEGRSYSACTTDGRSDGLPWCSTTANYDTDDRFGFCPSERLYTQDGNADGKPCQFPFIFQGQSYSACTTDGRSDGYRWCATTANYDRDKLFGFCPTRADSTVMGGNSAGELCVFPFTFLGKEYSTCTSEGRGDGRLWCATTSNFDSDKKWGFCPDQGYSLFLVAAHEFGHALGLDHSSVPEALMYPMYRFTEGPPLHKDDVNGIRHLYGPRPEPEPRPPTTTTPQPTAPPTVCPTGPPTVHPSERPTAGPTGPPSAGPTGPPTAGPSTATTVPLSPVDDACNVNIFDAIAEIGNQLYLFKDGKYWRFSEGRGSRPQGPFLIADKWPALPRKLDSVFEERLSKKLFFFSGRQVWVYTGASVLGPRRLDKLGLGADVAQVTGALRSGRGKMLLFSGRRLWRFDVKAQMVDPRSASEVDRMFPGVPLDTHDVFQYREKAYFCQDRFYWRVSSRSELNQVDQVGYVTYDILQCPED

For CC(=O)OCc1ccc2oc(=O)c(C(=O)Oc3cccc(Cl)c3)cc2c1 [compound 4, 3-chlorophenyl 6-acetoxymethyl-2-oxo-2H-1-benzopyran-3-carboxylate], the inhibition at 1 µM [1] was 50%, the inhibition at 10 µM [1] was 90% and the “inhibition of HMW-uPA” value (HMW-uPA) was “not affected”. For the same compound, the “inhibition of MMP-9” value (MMP-9) was “not affected”.

CC(=O)OCc1ccc2oc(=O)c(C(=O)Oc3cccc(Br)c3)cc2c1 [compound 7, 3-bromophenyl 6-acetoxy-methyl-2-oxo-2H-1-benzopyran-3-carboxylate] was tested, and the inhibition at 1 µM [1] was 80%, the inhibition at 10 µM [1] was roughly 90% and the “inhibition of HMW-uPA” value (HMW-uPA) was “not affected”. The “inhibition of MMP-9” value (MMP-9) was “not affected”.
